In patent US10118935B2, “Melampomagnolide B dimers” (priority 2014, dated 2018):

Columns and labels:
[1] = system: K-562; assay: NCI 60 cell line five dose, Leukemia
[2] = system: HCT-15; assay: NCI 60 cell line five dose, Colon Cancer
[3] = system: CCRF-CEM; assay: NCI 60 cell line five dose, Leukemia
[4] = system: SK-MEL-28; assay: NCI 60 cell line five dose, Melanoma
[5] = system: OVCAR-4; assay: NCI 60 cell line five dose, Ovarian Cancer
[6] = system: KM12; assay: NCI 60 cell line five dose, Colon Cancer
[7] = system: SF-268; assay: NCI 60 cell line five dose, CNS Cancer
[8] = system: NCI-H460; assay: NCI 60 cell line five dose, Non-Small Cell Lung Cancer
[9] = system: T-47D; assay: NCI 60 cell line five dose, Breast Cancer
[10] = system: PC-3; assay: NCI 60 cell line five dose, Prostate Cancer
[11] = system: NCI-H226; assay: NCI 60 cell line five dose, Non-Small Cell Lung Cancer
[12] = system: COLO 205; assay: NCI 60 cell line five dose, Colon Cancer
[13] = system: CAKI-1; assay: NCI 60 cell line five dose, Renal Cancer
[14] = system: UACC-62; assay: NCI 60 cell line five dose, Melanoma
[15] = system: M14; assay: NCI 60 cell line five dose, Melanoma
[16] = system: 786-0; assay: NCI 60 cell line five dose, Renal Cancer
[17] = system: SN12C; assay: NCI 60 cell line five dose, Renal Cancer
[18] = system: HCC-2998; assay: NCI 60 cell line five dose, Colon Cancer
[19] = system: SF-295; assay: NCI 60 cell line five dose, CNS Cancer
[20] = system: SR; assay: NCI 60 cell line five dose, Leukemia
[21] = system: SF-539; assay: NCI 60 cell line five dose, CNS Cancer
[22] = system: RXF 393; assay: NCI 60 cell line five dose, Renal Cancer
[23] = system: A498; assay: NCI 60 cell line five dose, Renal Cancer

C=C1C(=O)O[C@H]2[C@H]1CC/C(COC(=O)NCCCCNC(=O)OC/C1=C/CC[C@@]3(C)O[C@H]3[C@H]3OC(=O)C(=C)[C@@H]3CC1)=C\CC[C@@]1(C)O[C@@H]21 [JVM 3-54, bis(((1aR,7aS,10aS,10bS,E)-1a-Methyl-8-methylene-9-oxo-1a,2,3,6,7,7a,8,9,10a,10b-decahydrooxireno[2′,3′:9,10]cyclodeca[1,2-b]furan-5-yl)methyl)butane-1,4-diyldicarbamate]
GI50 [1]: 0.665 µM
TGI [1]: 10.4 µM
Percent Growth ([1]; Log10 Concentration −4.0): −46%
Percent Growth ([1]; Log10 Concentration −5.0): 1%
Percent Growth ([1]; Log10 Concentration −6.0): 40%
Percent Growth ([1]; Log10 Concentration −7.0): 96%
Percent Growth ([1]; Log10 Concentration −8.0): 101%
CC50 ([1]; read-out: LC50): > 100 µM
GI50 [2]: 5.61 µM
TGI [2]: 20.8 µM
Percent Growth ([2]; Log10 Concentration −4.0): 79%
Percent Growth ([2]; Log10 Concentration −5.0): 37%
Percent Growth ([2]; Log10 Concentration −6.0): 90%
Percent Growth ([2]; Log10 Concentration −7.0): 94%
Percent Growth ([2]; Log10 Concentration −8.0): 96%
CC50 ([2]; read-out: LC50): 56.3 µM
GI50 [3]: 0.272 µM
TGI [3]: 0.845 µM
Percent Growth ([3]; Log10 Concentration −4.0): −50%
Percent Growth ([3]; Log10 Concentration −5.0): −46%
Percent Growth ([3]; Log10 Concentration −6.0): −7%
Percent Growth ([3]; Log10 Concentration −7.0): 94%
Percent Growth ([3]; Log10 Concentration −8.0): 98%
CC50 ([3]; read-out: LC50): > 100 µM
GI50 [4]: 0.529 µM
TGI [4]: 2.3 µM
Percent Growth ([4]; Log10 Concentration −4.0): −73%
Percent Growth ([4]; Log10 Concentration −5.0): −58%
Percent Growth ([4]; Log10 Concentration −6.0): 33%
Percent Growth ([4]; Log10 Concentration −7.0): 94%
Percent Growth ([4]; Log10 Concentration −8.0): 100%
CC50 ([4]; read-out: LC50): 8.08 µM
GI50 [5]: 1.77 µM
Percent Growth ([5]; Log10 Concentration −4.0): −98%
Percent Growth ([5]; Log10 Concentration −5.0): −5%
Percent Growth ([5]; Log10 Concentration −6.0): 68%
Percent Growth ([5]; Log10 Concentration −7.0): 82%
Percent Growth ([5]; Log10 Concentration −8.0): 93%
CC50 ([5]; read-out: LC50): 30.5 µM
GI50 [6]: 3.18 µM
TGI [6]: 10.5 µM
Percent Growth ([6]; Log10 Concentration −4.0): −80%
Percent Growth ([6]; Log10 Concentration −5.0): 2%
Percent Growth ([6]; Log10 Concentration −6.0): 99%
Percent Growth ([6]; Log10 Concentration −7.0): 100%
Percent Growth ([6]; Log10 Concentration −8.0): 102%
CC50 ([6]; read-out: LC50): 43.3 µM
GI50 [7]: 3.18 µM
TGI [7]: 12.6 µM
Percent Growth ([7]; Log10 Concentration −4.0): −74%
Percent Growth ([7]; Log10 Concentration −5.0): 8%
Percent Growth ([7]; Log10 Concentration −6.0): 92%
Percent Growth ([7]; Log10 Concentration −7.0): 97%
Percent Growth ([7]; Log10 Concentration −8.0): 97%
CC50 ([7]; read-out: LC50): 51 µM
GI50 [8]: 4.61 µM
TGI [8]: 18 µM
Percent Growth ([8]; Log10 Concentration −4.0): −71%
Percent Growth ([8]; Log10 Concentration −5.0): 24%
Percent Growth ([8]; Log10 Concentration −6.0): 101%
Percent Growth ([8]; Log10 Concentration −7.0): 103%
Percent Growth ([8]; Log10 Concentration −8.0): 102%
CC50 ([8]; read-out: LC50): 60.7 µM
GI50 [9]: 1.51 µM
TGI [9]: 4.17 µM
Percent Growth ([9]; Log10 Concentration −4.0): −32%
Percent Growth ([9]; Log10 Concentration −5.0): −43%
Percent Growth ([9]; Log10 Concentration −6.0): 70%
Percent Growth ([9]; Log10 Concentration −7.0): 93%
Percent Growth ([9]; Log10 Concentration −8.0): 95%
CC50 ([9]; read-out: LC50): > 100 µM
GI50 [10]: 2.55 µM
TGI [10]: 8.05 µM
Percent Growth ([10]; Log10 Concentration −4.0): −93%
Percent Growth ([10]; Log10 Concentration −5.0): −9%
Percent Growth ([10]; Log10 Concentration −6.0): 91%
Percent Growth ([10]; Log10 Concentration −7.0): 99%
Percent Growth ([10]; Log10 Concentration −8.0): 99%
CC50 ([10]; read-out: LC50): 30.5 µM
GI50 [11]: 11.4 µM
TGI [11]: 30.5 µM
Percent Growth ([11]; Log10 Concentration −4.0): −60%
Percent Growth ([11]; Log10 Concentration −5.0): 57%
Percent Growth ([11]; Log10 Concentration −6.0): 100%
Percent Growth ([11]; Log10 Concentration −7.0): 97%
Percent Growth ([11]; Log10 Concentration −8.0): 98%
CC50 ([11]; read-out: LC50): 81.6 µM
GI50 [12]: 0.466 µM
TGI [12]: 1.8 µM
Percent Growth ([12]; Log10 Concentration −4.0): −61%
Percent Growth ([12]; Log10 Concentration −5.0): −73%
Percent Growth ([12]; Log10 Concentration −6.0): 25%
Percent Growth ([12]; Log10 Concentration −7.0): 100%
Percent Growth ([12]; Log10 Concentration −8.0): 100%
CC50 ([12]; read-out: LC50): 5.79 µM
GI50 [13]: 10.8 µM
TGI [13]: 23 µM
Percent Growth ([13]; Log10 Concentration −4.0): −97%
Percent Growth ([13]; Log10 Concentration −5.0): 55%
Percent Growth ([13]; Log10 Concentration −6.0): 91%
Percent Growth ([13]; Log10 Concentration −7.0): 90%
Percent Growth ([13]; Log10 Concentration −8.0): 93%
CC50 ([13]; read-out: LC50): 49.1 µM
GI50 [14]: 0.753 µM
TGI [14]: 2.5 µM
Percent Growth ([14]; Log10 Concentration −4.0): −86%
Percent Growth ([14]; Log10 Concentration −5.0): −67%
Percent Growth ([14]; Log10 Concentration −6.0): 44%
Percent Growth ([14]; Log10 Concentration −7.0): 93%
Percent Growth ([14]; Log10 Concentration −8.0): 95%
CC50 ([14]; read-out: LC50): 7.06 µM
GI50 [15]: 1.97 µM
TGI [15]: 4.82 µM
Percent Growth ([15]; Log10 Concentration −4.0): −84%
Percent Growth ([15]; Log10 Concentration −5.0): −41%
Percent Growth ([15]; Log10 Concentration −6.0): 88%
Percent Growth ([15]; Log10 Concentration −7.0): 88%
Percent Growth ([15]; Log10 Concentration −8.0): 94%
CC50 ([15]; read-out: LC50): 16.3 µM
GI50 [16]: 1.99 µM
TGI [16]: 4.25 µM
Percent Growth ([16]; Log10 Concentration −4.0): −91%
Percent Growth ([16]; Log10 Concentration −5.0): −56%
Percent Growth ([16]; Log10 Concentration −6.0): 95%
Percent Growth ([16]; Log10 Concentration −7.0): 91%
Percent Growth ([16]; Log10 Concentration −8.0): 98%
CC50 ([16]; read-out: LC50): 9.11 µM
GI50 [17]: 2.75 µM
TGI [17]: 10.1 µM
Percent Growth ([17]; Log10 Concentration −4.0): −84%
Percent Growth ([17]; Log10 Concentration −6.0): 89%
Percent Growth ([17]; Log10 Concentration −7.0): 101%
Percent Growth ([17]; Log10 Concentration −8.0): 100%
CC50 ([17]; read-out: LC50): 39.5 µM
GI50 [18]: 2.35 µM
TGI [18]: 4.78 µM
Percent Growth ([18]; Log10 Concentration −4.0): −78%
Percent Growth ([18]; Log10 Concentration −5.0): −52%
Percent Growth ([18]; Log10 Concentration −6.0): 110%
Percent Growth ([18]; Log10 Concentration −7.0): 99%
Percent Growth ([18]; Log10 Concentration −8.0): 97%
CC50 ([18]; read-out: LC50): 9.73 µM
GI50 [19]: 13 µM
TGI [19]: 27.4 µM
Percent Growth ([19]; Log10 Concentration −4.0): −87%
Percent Growth ([19]; Log10 Concentration −5.0): 68%
Percent Growth ([19]; Log10 Concentration −6.0): 98%
Percent Growth ([19]; Log10 Concentration −7.0): 89%
Percent Growth ([19]; Log10 Concentration −8.0): 92%
CC50 ([19]; read-out: LC50): 57.7 µM
GI50 [20]: 0.549 µM
TGI [20]: 3.51 µM
Percent Growth ([20]; Log10 Concentration −4.0): −34%
Percent Growth ([20]; Log10 Concentration −5.0): −29%
Percent Growth ([20]; Log10 Concentration −6.0): 35%
Percent Growth ([20]; Log10 Concentration −7.0): 94%
Percent Growth ([20]; Log10 Concentration −8.0): 93%
CC50 ([20]; read-out: LC50): > 100 µM
GI50 [21]: 1.55 µM
TGI [21]: 3.71 µM
Percent Growth ([21]; Log10 Concentration −4.0): −100%
Percent Growth ([21]; Log10 Concentration −5.0): −57%
Percent Growth ([21]; Log10 Concentration −6.0): 75%
Percent Growth ([21]; Log10 Concentration −7.0): 93%
Percent Growth ([21]; Log10 Concentration −8.0): 103%
CC50 ([21]; read-out: LC50): 8.84 µM
GI50 [22]: 1.44 µM
TGI [22]: 3.36 µM
Percent Growth ([22]; Log10 Concentration −4.0): −100%
Percent Growth ([22]; Log10 Concentration −5.0): −64%
Percent Growth ([22]; Log10 Concentration −6.0): 71%
Percent Growth ([22]; Log10 Concentration −7.0): 95%
Percent Growth ([22]; Log10 Concentration −8.0): 100%
CC50 ([22]; read-out: LC50): 7.84 µM
GI50 [23]: 6.36 µM
TGI [23]: 18.9 µM
Percent Growth ([23]; Log10 Concentration −4.0): −99%
Percent Growth ([23]; Log10 Concentration −5.0): 38%
Percent Growth ([23]; Log10 Concentration −6.0): 99%
Percent Growth ([23]; Log10 Concentration −7.0): 94%
Percent Growth ([23]; Log10 Concentration −8.0): 97%
CC50 ([23]; read-out: LC50): 43.9 µM
